Results published in US10100077B2, “6-aryl-9-glycosylpurines and use thereof” (UNIVERZITA PALACKEHO V OLOMOUCI, priority 2014, dated 2018).

Test system: Arabidopsis wild-type plants (Col-0) detached leaves
Experiment: Differential gene expression study (RNA sequencing) in senescent detached leaves
Procedure: Comparative gene expression analysis in Arabidopsis model was performed to gain information about the reprogramming of gene transcription when senescent leaves were treated with 6-(3-methoxybenzylamino)-9-β-D-arabinofuranosylpurine (3MeOBAPA).
For isolation of total RNA, Arabidopsis wild-type plants (Col-0) were used, which were either treated with 3MeOBAPA or left untreated. Wild-type plants were grown in soil for 30 days, and then leaves of similar size and chlorophyll content were cut and immediately used for the treatment. At least 20 detached leaves were submerged in 1×MS medium supplemented with 10 μM 3MeOBAPA. Control samples were mock treated with DMSO only. After incubation for 6 h or 48 h in the dark, detached leaves were frozen in liquid nitrogen and used for RNA isolation; 150 mg of liquid nitrogen-ground material was used per isolation. cDNA sequencing libraries were prepared with the Illumina TruSeq Stranded mRNA LT Sample Prep Kit (Illumina, San Diego, Calif.) according to standard Illumina's protocols and sequenced on HiSeq 2500 apparatus (50 bp single-end reads). […] To gain insight into the molecular mechanism of 3MeOBAPA action in Arabidopsis we decided to analyze the gene expression patterns via comparison of mock (DMSO)-treated plants with those obtained after i) short time treatment with 3MeOBAPA (6 h) and ii) long time treatment (48 h). This comparison leads to identification of group of genes with similar kinetic of expression and helps to understand possible mechanism of regulation. For data analysis, we performed ab initio method where sequencing reads were mapped to the reference genome.

SMILES: COc1cccc(CNc2ncnc3c2ncn3[C@@H]2O[C@H](CO)[C@@H](O)[C@@H]2O)c1 [6-(3-methoxybenzylamino)-9-β-D-arabinofuranosylpurine]
- number of genes upregulated in both groups (6 h and 48 h overlap): 1102 genes
- logFC AT1G02790 Polygalacturonase 4 (PGA4) (48 h, 10 μM): 8.59
- logFC AT1G05580 Cation/H(+) exchanger 23 (CHX23) (48 h, 10 μM): 5.46
- logFC AT1G10585 Basic helix-loop-helix (bHLH) DNA-binding superfamily protein (48 h, 10 μM): 4.85
- logFC AT1G15540 2-oxoglutarate and Fe(II)-dependent oxygenase superfamily protein (48 h, 10 μM): 5.63
- logFC AT1G19670 Chlorophyllase-1 (CLH1) (48 h, 10 μM): 6.42
- logFC AT1G55560 SKU5 similar 14 (SKS14) (48 h, 10 μM): 8.75
- logFC AT1G59860 17.6 kDa class I heat shock protein 1 (HSP17.6A) (48 h, 10 μM): 5.47
- logFC AT1G59950 NAD(P)-linked oxidoreductase superfamily protein (48 h, 10 μM): 5.72
- logFC AT1G75830 Defensin-like protein 1.1 (PDF1.1) (48 h, 10 μM): 7.85
- logFC AT1G76640 Calcium-binding EF-hand family protein (CML39) (48 h, 10 μM): 7.06
- logFC AT2G02010 Glutamate decarboxylase 4 (GAD4) (48 h, 10 μM): 5.09
- logFC AT2G04460 Transposable element gene (48 h, 10 μM): 5.43
- logFC AT2G18150 Peroxidase 15 (PER15) (48 h, 10 μM): 7.22
- logFC AT2G21900 WRKY transcription factor 59 (WRKY59) (48 h, 10 μM): 5.81
- logFC AT2G26010 Defensin-like protein 1.3 (PDF1.3) (48 h, 10 μM): 8.23
- logFC AT2G26020 Defensin-like protein 1.2B (PDF1.2B) (48 h, 10 μM): 6.04
- logFC AT2G26695 Ran BP2/NZF zinc finger-like superfamily protein (48 h, 10 μM): 5.90
- logFC AT2G28210 Alpha carbonic anhydrase 2 (ATACA2) (48 h, 10 μM): 5.86
- logFC AT2G37430 Zinc finger protein ZAT11 (48 h, 10 μM): 4.96
- logFC AT2G39030 L-ornithine N5-acetyltransferase (NATA1) (48 h, 10 μM): 5.48
- logFC AT2G47040 Pectin methylesterase Vanguard1 (VGD1) (48 h, 10 μM): 5.89
- logFC AT2G47050 Plant invertase/pectin methylesterase inhibitor superfamily protein (48 h, 10 μM): 5.82
- logFC AT3G05610 Pectinesterase/pectinesterase inhibitor 21 (PME21) (48 h, 10 μM): 5.58
- logFC AT3G07820 Pectin lyase-like superfamily protein (48 h, 10 μM): 6.45
- logFC AT3G09340 Transmembrane amino acid transporter family protein (48 h, 10 μM): 8.54
- logFC AT3G11340 UDP-Glycosyltransferase superfamily protein (48 h, 10 μM): 6.60
- logFC AT3G13400 SKU5 similar 13 (SKS13) (48 h, 10 μM): 5.57
- logFC AT3G28153 Transposable element gene (48 h, 10 μM): 5.70
- logFC AT3G28155 ARM repeat superfamily protein (48 h, 10 μM): 6.06
- logFC AT3G44830 Putative phospholipid: diacylglycerol acyltransferase 2 (PDAT2) (48 h, 10 μM): 4.91
- logFC AT3G62710 Glycosyl hydrolase family protein (48 h, 10 μM): 5.26
- logFC AT4G01390 TRAF-like family protein (48 h, 10 μM): 6.24
- logFC AT4G21830 Peptide methionine sulfoxide reductase B7 (MSRB7) (48 h, 10 μM): 5.95
- logFC AT4G22030 F-box domain, cyclin-like, F-box domain, Skp2-like protein (48 h, 10 μM): 5.02
- logFC AT4G22620 SAUR-like auxin-responsive family protein (48 h, 10 μM): 5.05
- logFC AT4G24350 Phosphorylase superfamily protein (48 h, 10 μM): 6.45
- logFC AT4G26010 Peroxidase 44 (PER44) (48 h, 10 μM): 7.92
- logFC AT4G31950 Cytochrome P450 82C3 (CYP82C3) (48 h, 10 μM): 5.29
- logFC AT4G35010 Beta-galactosidase 11 (BGAL11) (48 h, 10 μM): 5.33
- logFC AT4G37780 Myb domain protein 87 (MYB87) (48 h, 10 μM): 6.88
- logFC AT4G39320 Microtubule-associated protein-related (48 h, 10 μM): 5.09
- logFC AT5G03610 GDSL esterase/lipase (48 h, 10 μM): 4.61
- logFC AT5G12960 Putative glycosyl hydrolase (48 h, 10 μM): 5.26
- logFC AT5G44420 Defensin-like protein 1.2A (PDF1.2A) (48 h, 10 μM): 8.15
- logFC AT5G44430 Defensin-like protein 1.2C (PDF1.2C) (48 h, 10 μM): 8.87
- logFC AT5G45880 Pollen Ole e 1 allergen and extensin family protein (48 h, 10 μM): 5.52
- logFC AT5G52670 Copper transport family protein (48 h, 10 μM): 6.03
- logFC AT5G61160 Agmatine coumaroyltransferase (ACT) (48 h, 10 μM): 5.05
- logFC AT5G62720 Integral membrane HPP family protein (48 h, 10 μM): 5.31
- logFC AT5G63270 RPM1-interacting protein 4 (RIN4) family protein (48 h, 10 μM): 7.11
- number of downregulated genes (P≤0.05) (48 h, 10 μM, vs mock): 7095 genes
- number of upregulated genes (P≤0.05) (48 h, 10 μM, vs mock): 7509 genes
